{"source": "patent US11458189B2", "about": "“Cytoprotective drugs” (BALMES TRANSPLANTATION, priority 2017, dated 2022)", "tested_on": "Human Astrocytes (HA)", "assay": "Oxygen and glucose deprivation followed by replenishment, cell survival (calcein AM), HA", "format": "cell-based", "description": "Anidulafungin and micafungin were tested on Human Renal Glomerular Endothelial Cells (HRGEC, Innoprot P10665), on Human Renal Proximal Tubular Epithelial Cells (HRPTEpiC, Innoprot P10662), on Human Astrocytes (HA, caltag SC-1800), on Human Cardiac Microvascular Endothelial Cells (HCMEC, Caltag SC-6000), on Human Hepatic Sinusoidal Endothelial Cells (HHSEC, Caltag SC-5000), on Rat Primary Kidney Glomerular Endothelial cells (Cellbiologics, RN-6014G) and on Bovine Brain Microvascular Endothelial Cells (BBMEC, Caltag SC-B100).\nIn a first phase, these isolated, purified and cryopreserved cells are thawed and multiplied according to the supplier's recommendations in T75 or T175 flasks pre-coated with 2 μg of fibronectin/[…] (CORNING) for HRGEC, HCMEC, HHSEC and BBMEC, or 2 μg poly-L-lysin/cm^2 (Caltag SC-0403) for HRPTEpiC and HA, or 15 mL/flask 175 cm^2 gelatin-based solution (Cellbiologics) in the presence of endothelial cell supplemented growth medium ECM (P60104, INNOPROT, Caltag, SC-1001) for HRGEC, HCMEC, HHSEC, RPKGEC or BBMEC, or astrocyte cell supplemented growth medium AM (Caltag SC-1801) for HA or epithelial cell supplemented growth medium EpiCM (P60106, INNOPROT) for HRPTEpiC, at 37° C. under 5% CO2 and saturated humidity until their confluency. They are then harvested by trypsinization according to the method described by the supplier for exactly 5 minutes and then reseeded in new flasks a maximum of three times.\nTo carry out the oxygen and glucose deprivation test followed by their replenishment, the cells will be seeded in 96-well black plates with transparent flat bottom (GREINER). Once a sufficient number of cells has been obtained to allow seeding of 2000 to 15000 cells per well of 96-well plates depending on the cell type, the cells are seeded in these 96-well plates previously coated with an extracellular matrix as listed above for the flasks. The cells are cultured for 5 to 8 days according to the cell type, in the presence of the same growth medium as in the flask as described above except for HRGEC and HRPTEpiC for which DMEM (DUTSCHER) with 1 g/L of supplemented glucose is used, at 37° C. under 5% CO2 and saturated humidity to obtain confluency.\nOn the first day of oxygen and glucose deprivation, (5th, 6th, 7th or 8th day of culture), the culture conditions are drastically changed. The medium of all plates is removed and replaced by DMEM (DUTSCHER) medium without glucose and supplemented only with 1% penicillin-streptomycin (DUTSCHER). Anidulafungin or micafungin dissolved in dimethyl sulfoxide (DMSO) is then added to each well at the desired concentration, resulting in a maximum of 1% DMSO, and the plates are placed under hypoxia at <1% 02 and 5% CO2 at 37° C. for 24 hours of culture. Each compound was tested in a concentration range.\nAfter 24 hours, the growth medium is changed and replaced by a richer medium, DMEM (DUTSCHER) at 1 g/L glucose and 2% FBS (INNOPROT) and 1% penicillin-streptomycin (DUTSCHER). These media will have been pre-equilibrated at 37° C. in advance. The cells are then returned to culture at 37° C. under 20% 02 and 5% CO2 for 22h.\nAfter 22 hours of reoxygenation, the potential protective effect of anidulafungin or micafungin is measured by a cell viability test using calcein AM (CORNING), which is a dye substrate. The calcein AM can easily cross the cell membrane of the viable cells. The AM ester groups mask the part of the molecule that chelates calcium. Once inside the cells, the (non-fluorescent) calcein AM is hydrolyzed to (fluorescent) calcein by endogenous esterases. The resulting calcein molecule binds to calcium inside the cell and remains trapped inside the cell. These molecules emit strong green fluorescence when subjected to […] of a particular wavelength (495 nm). Since dead cells lack esterase activity, only living cells are labelled.\nThis cell viability test is performed in two steps. […]", "note": "Starred links: 1 amine or outer side, 2 acyl side, 3 side chain; linkers in the order of their positions; H or OH if unused. Positions of bridges follow the written chain, without caps; N, C: chain ends. Non-standard residues stand in square brackets, D forms with d. Residues, ends and D or L forms follow the SMILES beside them. *: point of attachment. hTyr(3S-OH,4S-OH,3'-OSO3H) = N[C@H](C(=O)O)[C@H](O)[C@@H](O)c1ccc(O)c(OS(=O)(=O)O)c1; Orn(4R-OH,5R-OH) = O=C([C@H](C[C@@H](O)[C@@H](O)N[*:3])N[*:1])[*:2]; Pro(3S-OH,4S-Me) = C[C@H]1CN[C@H](C(=O)O)[C@H]1O; X1 = CCCCCOc1ccc(-c2cc(-c3ccc(C(=O)*)cc3)no2)cc1; Gln(3R-OH) = NC(=O)C[C@@H](O)[C@H](N)C(=O)O; Hyp = O=C(O)[C@@H]1C[C@@H](O)CN1"}
{"smiles": "CCCCCOc1ccc(-c2cc(-c3ccc(C(=O)N[C@H]4C[C@@H](O)[C@@H](O)NC(=O)[C@@H]5[C@@H](O)[C@@H](C)CN5C(=O)[C@H]([C@H](O)CC(N)=O)NC(=O)[C@H]([C@H](O)[C@@H](O)c5ccc(O)c(OS(=O)(=O)O)c5)NC(=O)[C@@H]5C[C@@H](O)CN5C(=O)[C@H]([C@@H](C)O)NC4=O)cc3)no2)cc1", "note": "[Micafungin, {5-[(1S,2S)-2-[(3S,6S,9S,11R,15S,18S,20R,21R,24S,25S,26S)-3-[(1R)-2-carbamoyl-1-hydroxyethyl]-11,20,21,25-tetrahydroxy-15-[(1R)-1-hydroxyethyl]-26-methyl-2,5,8,14,17,23-hexaoxo-18-[(4-{5-[4-(pentyloxy)phenyl]-1,2-oxazol-3-yl}benzene)amido]-1,4,7,13,16,22-hexaazatricyclo[22.3.0.0]heptacosan-6-yl]-1,2-dihydroxyethyl]-2-hydroxyphenyl}oxidanesulfonic acid] (X1-[Orn(4R-OH,5R-OH)]T[Hyp][hTyr(3S-OH,4S-OH,3'-OSO3H)][Gln(3R-OH)][Pro(3S-OH,4S-Me)]; lactam 1-C)", "values": [{"measurement": "Globalfluo assay 1", "setting": "[Micafungin] log μM 0", "value": 11119980, "unit": "arbitrary units"}, {"measurement": "Globalfluo assay 2", "setting": "[Micafungin] log μM 0", "value": 10122420, "unit": "arbitrary units"}, {"measurement": "Globalfluo assay 3", "setting": "[Micafungin] log μM 0", "value": 9942897, "unit": "arbitrary units"}, {"measurement": "Mean globalfluo", "setting": "[Micafungin] log μM 0", "value": 10395099, "unit": "arbitrary units"}, {"measurement": "Survival rate (%)", "setting": "[Micafungin] log μM 0", "value": 2, "unit": "%"}, {"measurement": "Globalfluo assay 1", "setting": "[Micafungin] log μM 0.4771213", "value": 10184240, "unit": "arbitrary units"}, {"measurement": "Globalfluo assay 2", "setting": "[Micafungin] log μM 0.4771213", "value": 11122790, "unit": "arbitrary units"}, {"measurement": "Globalfluo assay 3", "setting": "[Micafungin] log μM 0.4771213", "value": 12211830, "unit": "arbitrary units"}, {"measurement": "Mean globalfluo", "setting": "[Micafungin] log μM 0.4771213", "value": 11172953, "unit": "arbitrary units"}, {"measurement": "Survival rate (%)", "setting": "[Micafungin] log μM 0.4771213", "value": 6, "unit": "%"}, {"measurement": "Globalfluo assay 1", "setting": "[Micafungin] log μM 0.7781513", "value": 12145620, "unit": "arbitrary units"}, {"measurement": "Globalfluo assay 2", "setting": "[Micafungin] log μM 0.7781513", "value": 12627660, "unit": "arbitrary units"}, {"measurement": "Globalfluo assay 3", "setting": "[Micafungin] log μM 0.7781513", "value": 12964960, "unit": "arbitrary units"}, {"measurement": "Mean globalfluo", "setting": "[Micafungin] log μM 0.7781513", "value": 12579413, "unit": "arbitrary units"}, {"measurement": "Survival rate (%)", "setting": "[Micafungin] log μM 0.7781513", "value": 14, "unit": "%"}, {"measurement": "Globalfluo assay 1", "setting": "[Micafungin] log μM 0.90309", "value": 12128260, "unit": "arbitrary units"}, {"measurement": "Globalfluo assay 2", "setting": "[Micafungin] log μM 0.90309", "value": 10787240, "unit": "arbitrary units"}, {"measurement": "Globalfluo assay 3", "setting": "[Micafungin] log μM 0.90309", "value": 13139350, "unit": "arbitrary units"}, {"measurement": "Mean globalfluo", "setting": "[Micafungin] log μM 0.90309", "value": 12018283, "unit": "arbitrary units"}, {"measurement": "Survival rate (%)", "setting": "[Micafungin] log μM 0.90309", "value": 11, "unit": "%"}, {"measurement": "Globalfluo assay 1", "setting": "[Micafungin] log μM 1", "value": 15956640, "unit": "arbitrary units"}, {"measurement": "Globalfluo assay 2", "setting": "[Micafungin] log μM 1", "value": 14291510, "unit": "arbitrary units"}, {"measurement": "Globalfluo assay 3", "setting": "[Micafungin] log μM 1", "value": 16904820, "unit": "arbitrary units"}, {"measurement": "Mean globalfluo", "setting": "[Micafungin] log μM 1", "value": 15717657, "unit": "arbitrary units"}, {"measurement": "Survival rate (%)", "setting": "[Micafungin] log μM 1", "value": 32, "unit": "%"}, {"measurement": "Globalfluo assay 1", "setting": "[Micafungin] log μM 1.079181", "value": 12974980, "unit": "arbitrary units"}, {"measurement": "Globalfluo assay 2", "setting": "[Micafungin] log μM 1.079181", "value": 13357070, "unit": "arbitrary units"}, {"measurement": "Globalfluo assay 3", "setting": "[Micafungin] log μM 1.079181", "value": 13693180, "unit": "arbitrary units"}, {"measurement": "Mean globalfluo", "setting": "[Micafungin] log μM 1.079181", "value": 13341743, "unit": "arbitrary units"}, {"measurement": "Survival rate (%)", "setting": "[Micafungin] log μM 1.079181", "value": 18, "unit": "%"}, {"measurement": "Globalfluo assay 1", "setting": "[Micafungin] log μM 1.176091", "value": 15116230, "unit": "arbitrary units"}, {"measurement": "Globalfluo assay 2", "setting": "[Micafungin] log μM 1.176091", "value": 14430130, "unit": "arbitrary units"}, {"measurement": "Globalfluo assay 3", "setting": "[Micafungin] log μM 1.176091", "value": 15740520, "unit": "arbitrary units"}, {"measurement": "Mean globalfluo", "setting": "[Micafungin] log μM 1.176091", "value": 15095627, "unit": "arbitrary units"}, {"measurement": "Survival rate (%)", "setting": "[Micafungin] log μM 1.176091", "value": 28, "unit": "%"}, {"measurement": "Globalfluo assay 1", "setting": "[Micafungin] log μM 1.30103", "value": 11900350, "unit": "arbitrary units"}, {"measurement": "Globalfluo assay 2", "setting": "[Micafungin] log μM 1.30103", "value": 13780590, "unit": "arbitrary units"}, {"measurement": "Globalfluo assay 3", "setting": "[Micafungin] log μM 1.30103", "value": 15553770, "unit": "arbitrary units"}, {"measurement": "Mean globalfluo", "setting": "[Micafungin] log μM 1.30103", "value": 13744903, "unit": "arbitrary units"}, {"measurement": "Survival rate (%)", "setting": "[Micafungin] log μM 1.30103", "value": 21, "unit": "%"}, {"measurement": "Globalfluo assay 1", "setting": "[Micafungin] log μM 1.477121", "value": 14577460, "unit": "arbitrary units"}, {"measurement": "Globalfluo assay 2", "setting": "[Micafungin] log μM 1.477121", "value": 14402140, "unit": "arbitrary units"}, {"measurement": "Globalfluo assay 3", "setting": "[Micafungin] log μM 1.477121", "value": 13825080, "unit": "arbitrary units"}, {"measurement": "Mean globalfluo", "setting": "[Micafungin] log μM 1.477121", "value": 14268227, "unit": "arbitrary units"}, {"measurement": "Survival rate (%)", "setting": "[Micafungin] log μM 1.477121", "value": 24, "unit": "%"}, {"measurement": "Globalfluo assay 1", "setting": "[Micafungin] log μM −0.5228788", "value": 9708125, "unit": "arbitrary units"}, {"measurement": "Globalfluo assay 2", "setting": "[Micafungin] log μM −0.5228788", "value": 10748420, "unit": "arbitrary units"}, {"measurement": "Globalfluo assay 3", "setting": "[Micafungin] log μM −0.5228788", "value": 10103750, "unit": "arbitrary units"}, {"measurement": "Mean globalfluo", "setting": "[Micafungin] log μM −0.5228788", "value": 10186765, "unit": "arbitrary units"}, {"measurement": "Survival rate (%)", "setting": "[Micafungin] log μM −0.5228788", "value": 1, "unit": "%"}, {"measurement": "Globalfluo assay 1", "setting": "[Micafungin] log μM −1", "value": 12091240, "unit": "arbitrary units"}, {"measurement": "Globalfluo assay 2", "setting": "[Micafungin] log μM −1", "value": 10337500, "unit": "arbitrary units"}, {"measurement": "Globalfluo assay 3", "setting": "[Micafungin] log μM −1", "value": 9946542, "unit": "arbitrary units"}, {"measurement": "Mean globalfluo", "setting": "[Micafungin] log μM −1", "value": 10791761, "unit": "arbitrary units"}, {"measurement": "Survival rate (%)", "setting": "[Micafungin] log μM −1", "value": 4, "unit": "%"}, {"measurement": "Globalfluo assay 1", "setting": "[Micafungin] log μM −2", "value": 9536623, "unit": "arbitrary units"}, {"measurement": "Globalfluo assay 2", "setting": "[Micafungin] log μM −2", "value": 9993250, "unit": "arbitrary units"}, {"measurement": "Globalfluo assay 3", "setting": "[Micafungin] log μM −2", "value": 10712930, "unit": "arbitrary units"}, {"measurement": "Mean globalfluo", "setting": "[Micafungin] log μM −2", "value": 10080934, "unit": "arbitrary units"}, {"measurement": "Survival rate (%)", "setting": "[Micafungin] log μM −2", "value": 0, "unit": "%"}]}
